Inhibition data for 57 molecules are collected here from ChEMBL document CHEMBL2163249, “Exploration of natural compounds as sources of new bifunctional scaffolds targeting cholinesterases and beta amyloid aggregation: the case of chelerythrine” (Bioorg Med Chem, 2012).

The term inhibition denotes the drop in the measured response relative to a control, in per cent.

Assay [1] concerns the target Cholinesterase (Equus caballus) (UniProt P81908). As to conditions: at 2 mg/mL.
Description: Inhibition of horse BChE at 2 mg/ml by Ellman's method
Assay [2] has as its target Acetylcholinesterase (Electrophorus electricus) (UniProt O42275). As to conditions: at 2 mg/mL.
Description: Inhibition of electric eel AChE at 2 mg/ml by Ellman's method

Sequence of Acetylcholinesterase (Electrophorus electricus) (O42275 24-633 limits assumed): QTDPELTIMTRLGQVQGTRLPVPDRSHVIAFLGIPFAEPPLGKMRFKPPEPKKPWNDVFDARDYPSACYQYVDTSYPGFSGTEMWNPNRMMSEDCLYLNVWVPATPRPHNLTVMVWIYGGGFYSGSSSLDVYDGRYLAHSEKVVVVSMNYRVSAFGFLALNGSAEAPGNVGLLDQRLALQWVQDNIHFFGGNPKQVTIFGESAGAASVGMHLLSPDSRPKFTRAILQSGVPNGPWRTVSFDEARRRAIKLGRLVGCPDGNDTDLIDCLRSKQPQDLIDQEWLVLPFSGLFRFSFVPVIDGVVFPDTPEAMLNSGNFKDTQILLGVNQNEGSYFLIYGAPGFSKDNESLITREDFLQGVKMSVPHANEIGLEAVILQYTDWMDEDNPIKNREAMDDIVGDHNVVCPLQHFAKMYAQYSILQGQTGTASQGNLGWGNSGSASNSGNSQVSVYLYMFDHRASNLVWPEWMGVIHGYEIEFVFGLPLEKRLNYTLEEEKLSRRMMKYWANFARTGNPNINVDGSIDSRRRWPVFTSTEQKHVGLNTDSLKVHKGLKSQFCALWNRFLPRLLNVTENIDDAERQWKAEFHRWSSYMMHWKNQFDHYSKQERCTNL
Sequence of Cholinesterase (Equus caballus) (P81908 whole entry): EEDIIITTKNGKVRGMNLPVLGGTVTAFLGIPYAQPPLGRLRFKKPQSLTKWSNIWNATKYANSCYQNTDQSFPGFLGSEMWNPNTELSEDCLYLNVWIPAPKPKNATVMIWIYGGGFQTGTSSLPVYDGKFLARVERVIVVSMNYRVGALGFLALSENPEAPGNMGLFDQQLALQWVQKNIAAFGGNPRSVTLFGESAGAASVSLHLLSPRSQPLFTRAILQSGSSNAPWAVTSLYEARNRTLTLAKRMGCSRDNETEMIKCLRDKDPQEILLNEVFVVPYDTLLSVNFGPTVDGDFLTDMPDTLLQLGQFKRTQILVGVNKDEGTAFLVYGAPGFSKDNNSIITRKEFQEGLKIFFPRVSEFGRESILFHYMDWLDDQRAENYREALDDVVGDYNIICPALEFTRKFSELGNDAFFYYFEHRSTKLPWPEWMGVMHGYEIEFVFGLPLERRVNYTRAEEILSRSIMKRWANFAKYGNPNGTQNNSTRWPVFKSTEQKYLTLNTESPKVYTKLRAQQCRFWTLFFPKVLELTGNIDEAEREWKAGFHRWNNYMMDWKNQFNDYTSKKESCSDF

On to `CCC1=C[C@@H]2CN(C1)Cc1c([nH]c3ccccc13)[C@@](C(=O)OC)(c1cc3c(cc1OC)N(C)[C@H]1[C@@](O)(C(=O)OC)[C@H](OC(C)=O)[C@]4(CC)C=CCN5CC[C@]31[C@@H]54)C2`, for which the figures for the inhibition in assay [1] and in assay [2] were 12.2% and -0.32%, respectively.
The like results for `COc1cc2c(cc1OC)[C@@H]1C(=O)c3ccc4c(c3O[C@@H]1CO2)C=CC(C)(C)O4` were, in that order, 2.21% and -8.14%.
As to `CC1(C)[C@@H](O)CC[C@]2(C)[C@H]3C(=O)C=C4[C@@H]5C[C@@](C)(C(=O)O)CC[C@]5(C)CC[C@@]4(C)[C@]3(C)CC[C@@H]12`, the values for the inhibition in assay [1] and in assay [2] were 4.46% and -3.12%, respectively.
The like results for `Cc1cc(=O)oc2cc(O)ccc12` were, in that order, 0.88% and 4.46%.
Consider `COc1ccc(CC2NCCc3cc(OC)c(OC)cc32)cc1OC` (centres undefined), for which the inhibition came out at 7.36% in assay [1] and 4.06% in assay [2].
Consider `COc1cc2c(cc1O)C[C@H]1c3c(cc(O)c(OC)c3-2)CCN1C`, for which the values for the inhibition in assay [1] and in assay [2] were 1.24% and 9.51%, respectively.
The like results for `Oc1cc(O)c2c(c1)O[C@H](c1ccc(O)c(O)c1)[C@H](O)C2` were, in that order, 0.47% and -4.81%.
For the molecule `OC[C@H]1O[C@@H](Oc2ccc(O)cc2)[C@H](O)[C@@H](O)[C@@H]1O`, the figures for the inhibition in assay [1] and in assay [2] were 6.63% and 9.16%, respectively.
The like results for `COc1c2occc2c(OC)c2c(=O)cc(C)oc12` were, in that order, 3.3% and 7.57%.
On the same counts, the results for `COc1cc2c(c(OC)c1OC)-c1c(cc3c(c1O)OCO3)C[C@H](C)[C@](C)(O)[C@H]2OC(=O)c1ccccc1` are -0.32% and 5.31%.
Consider `CC1=NCCc2c1[nH]c1cc(O)ccc21`, for which the inhibition in assay [1] stood at 34.5%; in assay [2], 41.8%.
As to `CC(=O)O[C@H]1CC[C@]2(C=O)[C@H]3CC[C@]4(C)[C@@H](C5=CC(=O)OC5)CC[C@]4(O)[C@@H]3CC[C@]2(O)C1`, the inhibition in assay [1] is -2.95%; in assay [2] it was -2.93%.
On the same counts, the results for `O=c1c(O)c(-c2ccccc2O)oc2cc(O)cc(O)c12` are 1.68% and 23%.
The like results for `CN(C)Cc1c[nH]c2ccccc12` were, in that order, 10.6% and 15.3%.
As to `CCN1C[C@]2(COC)CC[C@H](OC)[C@]34C5C[C@@H]6[C@@H](OC)C[C@@]7(OCO[C@@]7(C13)[C@@H](O)C24)C5[C@H]6OC` (some centres undefined), the figures for the inhibition in assay [1] and in assay [2] were -6.6% and 23.4%, respectively.
On the same counts, the results for `CO[C@H]1/C=C/O[C@@]2(C)Oc3c(C)c(O)c4c(O)c(c(/C=N/N5CCN(C)CC5)c(O)c4c3C2=O)NC(=O)/C(C)=C\C=C\[C@H](C)[C@H](O)[C@@H](C)[C@@H](O)[C@@H](C)[C@H](OC(C)=O)[C@@H]1C` are 1.88% and 16.2%.
For `CC[C@@]1(O)C(=O)OCc2c1cc1n(c2=O)Cc2cc3ccccc3nc2-1`, the values for the inhibition in assay [1] and in assay [2] were 3.9% and 14.1%, respectively.
The like results for `O=c1c(O)c(-c2ccccc2)oc2cc(O)cc(O)c12` were, in that order, 2.59% and 6.98%.
On the same counts, the results for `COC(=O)C1=CCCN(C)C1` are 0.29% and 16.9%.
Regarding `COc1cc2c(c(OC)c1OC)-c1c(cc(OC)c(OC)c1OC)C[C@H](C)[C@H](C)C2`, the inhibition is -4.82% in assay [1] and -1.7% in assay [2].
The like results for `C=C(C)[C@@H]1CC[C@]2(CO)CC[C@]3(C)[C@H](CC[C@@H]4[C@@]5(C)CC[C@H](O)C(C)(C)[C@@H]5CC[C@]43C)[C@@H]12` were, in that order, 0.47% and 7.09%.
The like results for `COC1=C(N)C(=O)c2nc(-c3nc(C(=O)O)c(C)c(-c4ccc(OC)c(OC)c4O)c3N)ccc2C1=O` were, in that order, -5.44% and -2.66%.
The like results for `O=C(O)C1=C[C@@H](O)[C@@H](O)[C@H](O)C1` were, in that order, -4.96% and -8.33%.
As for `CCCCC1OC(=O)C2=CCCCC21` (centres undefined), the inhibition is 4.12% in assay [1] and -0.57% in assay [2].
Take `COc1ccc(/C=C/c2cc(O)cc(O[C@@H]3O[C@H](CO)[C@@H](O)[C@H](O)[C@H]3O)c2)cc1O`: the inhibition was -4.38% in assay [1] and -3.62% in assay [2].
The like results for `COc1ccc2ccc(=O)oc2c1CC=C(C)C` were, in that order, -0.19% and 3.31%.
Consider `C[C@H]1C(=O)O[C@@H]2CCN3CC=C(COC(=O)[C@](C)(O)[C@]1(C)O)[C@H]23`, for which the figures for the inhibition in assay [1] and in assay [2] were 4.32% and 19.5%, respectively.
On the same counts, the results for `CC[C@H](CC[C@@H](C)[C@H]1CC[C@H]2[C@@H]3CC=C4C[C@@H](O)CC[C@]4(C)[C@H]3CC[C@]12C)C(C)C` are -1.87% and 13.8%.
Take `COc1ccc(-c2cc(=O)c3ccc(O)cc3o2)cc1`: the inhibition was 6.46% in assay [1] and 30.6% in assay [2].
With `COc1cc2c(cc1OC)[C@H](C)NCC2`, the inhibition in assay [1] is -4.57%; in assay [2] it was -3.39%.
On to `C=C(C)[C@H]1CN[C@H](C(=O)O)[C@H]1CC(=O)O`, for which the values for the inhibition in assay [1] and in assay [2] were 4.53% and -5.89%, respectively.
The like results for `C/C=C(\C)C(=O)O[C@H]1CC(C)=CC(=O)[C@@]2(C)CC[C@@](O)(C(C)C)[C@H]12` were, in that order, -1.66% and 16.6%.
In the case of `CCCCC[C@H](O)/C=C/[C@H]1[C@H](O)CC(=O)[C@@H]1C/C=C\CCCC(=O)O`, the inhibition was -2.38% in assay [1] and 14.8% in assay [2].
For the molecule `COc1ccc(C[C@H]2c3cc(OC)c(OC)cc3CC[N+]2(C)C)cc1OC`, the inhibition was determined as 2.85% in assay [1] and 28.5% in assay [2].
For the molecule `CC(C)=CC[C@@H](O)C1=CC(=O)c2c(O)ccc(O)c2C1=O`, the inhibition in assay [1] was found to be 3.58%; in assay [2], 15.7%.
The like results for `C=C[C@](C)(O)CC[C@@H]1[C@@]2(C)CCCC(C)(C)[C@@H]2CC[C@@]1(C)O` were, in that order, -2.61% and 3.08%.
In the case of `C=C[C@@](C)(O)CC[C@H]1C(=C)CC[C@H]2C(C)(C)CCC[C@]12C`, the inhibition was 0.47% in assay [1] and 21.8% in assay [2].
On the same counts, the results for `O=C(O)/C=C/c1ccc(O)c(O)c1` are 0.67% and 2.2%.
On the same counts, the results for `C=CCc1cc(OC)c2c(c1)OCO2` are -9.87% and 6.75%.
The like results for `CC1=CC(=O)c2ccccc2C1=O` were, in that order, -1.75% and 17.8%.
For `CC(=O)N[C@H]1[C@@H](O[C@@H]2O[C@H](C[C@@H](O)[C@@H]3O[C@H](n4ccc(=O)[nH]c4=O)[C@@H](O)[C@H]3O)[C@H](O)[C@H](O)[C@H]2NC(=O)/C=C/CCCCCCCCCCC(C)C)O[C@H](CO)[C@@H](O)[C@@H]1O`, the inhibition in assay [1] was determined as 1.57%; in assay [2], 14.2%.
`CO[C@H]1[C@@H](O)[C@@H](C)O[C@H](O[C@H]2[C@H](Oc3cccc4c(O)c5c(=O)oc6ccc(C)c7c(=O)oc(c34)c5c67)O[C@H](C)[C@H](O)[C@@H]2O)[C@@H]1O`: the inhibition stood at 7.94% in assay [1] and 17.5% in assay [2].
The like results for `CC1=C2[C@H]3OC(=O)[C@@H](C)[C@@H]3CC[C@@]2(C)C=CC1=O` were, in that order, -3.62% and 3.63%.
As for `CCCCC[C@H](O)/C=C/[C@H]1C=CC(=O)[C@@H]1CCCCCCC(=O)O`, the inhibition in assay [1] is -1.82%; in assay [2] it was 15.3%.
The like results for `CCCC[C@@H](C)[C@@H](OC(=O)C[C@@H](CC(=O)O)C(=O)O)[C@H](C[C@@H](C)CCCCCC[C@@H](O)C[C@H](O)[C@H](C)N)OC(=O)C[C@@H](CC(=O)O)C(=O)O` were, in that order, 15.1% and -8.37%.
On the same counts, the results for `O=c1oc2cc(O)ccc2c2oc3cc(O)ccc3c12` are 9.06% and 3.18%.
On the same counts, the results for `CC(=O)c1c(O)c(C)c(O)c(Cc2c(O)c3c(c(C(=O)/C=C/c4ccccc4)c2O)OC(C)(C)C=C3)c1O` are 4.24% and 15.8%.
In the case of `C[C@@H]1O[C@H](C[N+](C)(C)C)C[C@H]1O`, the inhibition in assay [1] was -6.38%; in assay [2], -6.43%.
On to `Cn1c(-c2ccc3c(c2)OCO3)cc(=O)c2ccccc21`, for which the inhibition in assay [1] was 9.48%; in assay [2], 31.1%.
On the same counts, the results for `COc1ccc(C(=O)O[C@H]2CC[C@@]3(C)[C@@H]4CC[C@H]5[C@]6(O)C[C@H](O)[C@@]7(O)[C@@H](CN8C[C@@H](C)CC[C@H]8[C@@]7(C)O)[C@]6(O)C[C@@]53O[C@]24O)cc1OC` are -4.13% and 21.8%.
On the same counts, the results for `CN1[C@@H]2CC[C@H]1C[C@H](O)C2` are -9.24% and 1.27%.
On the same counts, the results for `CO[C@@H]1C[C@@H](C[C@H]2CC[C@H](C)[C@H]([C@@H](C)C(=O)O)O2)O[C@]2(O[C@](C)([C@H]3CC[C@@](C)([C@@H]4O[C@@H]([C@H]5O[C@@](O)(CO)[C@H](C)C[C@@H]5C)C[C@@H]4C)O3)C[C@H]2C)[C@@H]1C` are 4.98% and -7.25%.
For the molecule `CO[C@H]1/C=C/O[C@@]2(C)Oc3c(C)c(O)c4c(O)c(cc(O)c4c3C2=O)NC(=O)/C(C)=C\C=C\[C@H](C)[C@H](O)[C@@H](C)[C@@H](O)[C@@H](C)[C@H](OC(C)=O)[C@@H]1C`, the inhibition in assay [1] was -3.13%; in assay [2], -6.18%.
For the molecule `C[C@H]1CC[C@]2(NC1)O[C@H]1C[C@H]3[C@@H]4CC[C@H]5C[C@@H](O)CC[C@]5(C)[C@H]4CC[C@]3(C)[C@H]1[C@@H]2C`, the inhibition amounted to 6.89% in assay [1] and 11.4% in assay [2].
The like results for `COc1ccc2cc1Oc1ccc(cc1)C[C@@H]1c3cc(c(OC)cc3CCN1C)Oc1c(OC)c(OC)cc3c1[C@H](C2)N(C)CC3` were, in that order, 21.9% and -1.02%.
On the same counts, the results for `CC1(C)CCC[C@]2(C)[C@H]3CC(=O)O[C@]3(C)CC[C@@H]12` are -1.03% and -6.49%.
On the same counts, the results for `C[C@H]1CCC/C=C/[C@@H]2C[C@H](O)C[C@H]2[C@H](O)/C=C/C(=O)O1` are 5.24% and -3.21%.
